Measurements from patent US20220235065A1 (Epizyme, Inc., priority 2016, published 2022).

Key:
[1] = test system: H3K9me2 in MDA-MB-231 cells; experiment: MDA-MB-231 H3K9me2 in-cell western assay; format: cell-based; conditions: Homo sapiens, read-out: EHMT2 ICW (IC50 μM)
Description: MDA-MB-231 cell line was purchased from ATCC (Manassas, Va., USA). RPMI/Glutamax medium, Penicillin-Streptomycin, Heat Inactivated Fetal Bovine Serum, and D-PBS were purchased from Life Technologies (Grand Island, N.Y., USA). Odyssey blocking buffer, 800CW goat anti-mouse IgG (H+L) antibody, and Licor Odyssey Infrared Scanner were purchased from Licor Biosciences, Lincoln, Nebr., USA. H3K9me2 mouse monoclonal antibody (Cat #1220) was purchased from Abcam (Cambridge, Mass., USA). 16% Paraformaldehyde was purchased from Electron Microscopy Sciences, Hatfield, Pa., USA). MDA-MB-231 cells were maintained in complete growth medium (RPMI supplemented with 10% v/v heat inactivated fetal bovine serum) and cultured at 37° C. under 5% CO2. UNC0638 was purchased from Sigma-Aldrich (St. Louis, Mo., USA).
General Procedure for MDA-MB-231 HEK9me2 In-Cell Western Assay.
Compound (100 nL) was added directly to 384-well cell plate. MDA-MB-231 cells (ATCC) were seeded in assay medium (RPMI/Glutamax supplemented with 10% v/v heat inactivated fetal bovine serum and 1% Penicillin/Streptomycin, Life Technologies) at a concentration of 3,000 cells per well to a Poly-D-Lysine coated 384-well cell culture plate with 50 μL per well. Plates were incubated at 37° C., 5% CO2 for 48 hours (BD Biosciences 356697). Plates were incubated at room temperature for 30 minutes and then incubated at 37° C., 5% CO2 for additional 48 hours. After the incubation, 50 μL per well of 8% paraformaldehyde (Electron Microscopy Sciences) in PBS was added to the plates and incubated at room temperature for 20 minutes. Plates were transferred to a Biotek 406 plate washer and washed 2 times with 100 μL per well of wash buffer (1×PBS containing 0.3% Triton X-100 (v/v)). Next, 60 μL per well of Odyssey blocking buffer (Licor Biosciences) was added to each plate and incubated for 1 hour at room temperature. Blocking buffer was removed and 20 μL of monoclonal primary antibody α-H3K9me2 (Abcam) diluted 1:800 in Odyssey buffer with 0.1% Tween 20 (v/v) were added and plates were incubated overnight (16 hours) at 4° C. Plates were washed 5 times with 100 μL per well of wash buffer. Next 20 μL per well of secondary antibody was added (1:500 800CW […] anti-mouse IgG (H+L) antibody (Licor Biosciences), 1:1000 DRAQ5 (Cell Signaling Technology) in Odyssey buffer with 0.1% Tween 20 (v/v)) and incubated for 1 hour at room temperature. The plates were washed 5 times with 100 μL per well wash buffer then 2 times with 100 μL per well of water. Plates were allowed to dry at room temperature then imaged on a Licor Odyssey Infrared Scanner (Licor Biosciences) which measured integrated intensity at 700 nm and 800 nm wavelengths. Both 700 and 800 channels were scanned.
% Inhibition Calculation.
First, the ratio for each well was determined by
Each plate included fourteen control wells of DMSO only treatment (Minimum Inhibition) as well as fourteen control wells (background wells) for maximum inhibition treated with control compound UNC0638 (Background wells).
The average of the ratio values for each well was calculated and used to determine the percent inhibition for each test well in the plate. Control compound was serially diluted three-fold in DMSO for a total of 10 test concentrations beginning at 1 μM. Percent inhibition was calculated as: […]
IC50 curves were generated using triplicate wells per concentration of compound. The IC50 is the concentration of compound at which measured methylation is inhibited by 50% as interpolated from the dose response curves. IC50 values were calculated using a non-linear regression (variable slope-four parameter fit model) with by the following formula
where Top is fixed at 100% and Bottom is fixed to 0%, [I]=concentration of inhibitor, IC50=half maximal inhibitory concentration and n=Hill Slope.

EHMT1 = target: T1, EHMT1 (Homo sapiens, UniProt Q9H9B1); experiment: EHMT1 PEP (EHMT1 peptide enzyme assay); format: biochemical; conditions: peptide substrate enzyme assay
T1 sequence (Q9H9B1 1-1298): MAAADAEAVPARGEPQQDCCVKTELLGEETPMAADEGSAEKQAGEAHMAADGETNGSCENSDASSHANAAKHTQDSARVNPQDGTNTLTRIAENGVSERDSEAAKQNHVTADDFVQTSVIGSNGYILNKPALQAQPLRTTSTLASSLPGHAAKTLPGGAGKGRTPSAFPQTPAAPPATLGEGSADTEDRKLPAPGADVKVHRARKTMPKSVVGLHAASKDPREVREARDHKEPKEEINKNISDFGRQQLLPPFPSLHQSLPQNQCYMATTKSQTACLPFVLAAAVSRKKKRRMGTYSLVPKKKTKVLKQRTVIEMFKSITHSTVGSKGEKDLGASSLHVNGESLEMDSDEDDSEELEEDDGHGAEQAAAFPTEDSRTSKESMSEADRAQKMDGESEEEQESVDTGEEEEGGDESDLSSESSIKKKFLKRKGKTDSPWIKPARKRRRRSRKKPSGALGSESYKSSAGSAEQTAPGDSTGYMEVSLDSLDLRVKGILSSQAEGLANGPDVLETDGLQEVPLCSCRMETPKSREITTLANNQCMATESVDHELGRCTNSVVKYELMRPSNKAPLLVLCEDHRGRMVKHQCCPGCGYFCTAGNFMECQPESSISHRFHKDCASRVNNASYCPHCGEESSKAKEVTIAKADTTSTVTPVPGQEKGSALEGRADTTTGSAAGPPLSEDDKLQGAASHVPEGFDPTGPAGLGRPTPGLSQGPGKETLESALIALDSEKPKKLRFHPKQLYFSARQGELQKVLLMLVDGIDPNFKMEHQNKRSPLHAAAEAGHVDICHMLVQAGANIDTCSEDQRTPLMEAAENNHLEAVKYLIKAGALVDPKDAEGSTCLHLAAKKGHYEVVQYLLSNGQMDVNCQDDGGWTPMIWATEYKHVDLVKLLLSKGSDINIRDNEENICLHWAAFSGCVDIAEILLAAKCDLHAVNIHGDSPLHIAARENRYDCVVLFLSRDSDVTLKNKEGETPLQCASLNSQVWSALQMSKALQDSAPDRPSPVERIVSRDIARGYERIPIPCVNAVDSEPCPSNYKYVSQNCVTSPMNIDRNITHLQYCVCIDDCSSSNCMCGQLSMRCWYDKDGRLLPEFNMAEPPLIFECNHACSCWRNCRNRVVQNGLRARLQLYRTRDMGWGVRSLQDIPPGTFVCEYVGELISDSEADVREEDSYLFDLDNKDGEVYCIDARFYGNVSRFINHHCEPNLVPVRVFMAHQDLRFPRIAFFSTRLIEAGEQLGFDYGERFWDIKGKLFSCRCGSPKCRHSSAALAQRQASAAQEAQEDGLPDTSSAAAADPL

IC50 [1] [µM]	IC50 (EHMT1) [µM]	Compound
> 10	1 to 10	CNc1cc(C)nc(Nc2ccc(Cl)c(C(=O)Nc3cccnc3)c2)n1 [Compound 240]
1 to 10	> 10	CNc1cc(C)nc(Nc2ccc(OC)c(-c3ccc4c(c3)NC(=O)C4)c2)n1 [Compound 218]
1 to 10	0.1 to 1	CNc1cc(C)nc(Nc2cnc(OC)c(-n3cc(C4CCCN4)cn3)c2)n1 (stereo not shown) [Compound 188]
1 to 10	0.1 to 1	CNc1cc(C)nc(Nc2ccc(OC)c(-c3cn4c(n3)CNCC4)c2)n1 [Compound 7]
0.1 to 1	< 0.1	CNc1cc(C)nc(Nc2ccc(OC)c(-c3cc4[nH]c(C)cc4cn3)c2)n1 [Compound 207]
1 to 10	< 0.1	CNc1cc(-c2cc(Nc3nc(C)cc(NC)n3)ccc2OC)ncn1 [Compound 225]
> 10	> 10	CNc1cc(C)nc(Nc2ccc(OC)c(-n3cc(C(NC)C(F)(F)F)nn3)c2)n1 (stereo not shown) [Compound 165]
1 to 10	< 0.1	CNc1cc(C)nc(Nc2ccc(OC)c(-c3cc4[nH]cnc4cn3)c2)n1 [Compound 210]
0.1 to 1	< 0.1	CNc1ccnc(Nc2ccc(OC)c(-n3cc(CN(C)C)nn3)c2)n1 [Compound 171]
> 10	1 to 10	CNc1ccnc(Nc2ccc(OC)c(-n3cc(C4COC4)nn3)c2)n1 [Compound 177]
1 to 10	> 10	CNc1ccnc(Nc2ccc(OC)c(-c3cc4[nH]ncc4cn3)c2)n1 [Compound 174]
0.1 to 1	< 0.1	CNC1=Nc2cc(-c3cc4[nH]ccc4cn3)c(OC)cc2C12CCC2 [Compound 214]
1 to 10	0.1 to 1	CNCc1cnn(-c2cc3nc(NC)cc(C4CCOCC4)c3cc2OC)c1 [Compound 184]
> 10	> 10	CNc1ccnc(Nc2ccc(OC)c(-c3ccc4cc[nH]c4c3)c2)n1 [Compound 178]
0.1 to 1	< 0.1	CNc1cc(C)nc(Nc2ccc(OC)c(-c3cc4[nH]ccc4cn3)c2F)n1 [Compound 221]
0.1 to 1	< 0.1	CNc1ccnc(Nc2ccc(OC)c(-c3cc4[nH]ccc4cn3)c2)n1 [Compound 175, N2-(4-methoxy-3-(1H-pyrrolo[3,2-c]pyridin-6-yl)phenyl)-N4-methylpyrimidine-2,4-diamine]
1 to 10	< 0.1	CNc1ccnc(Nc2ccc(OC)c(-n3cc(CNCC4CC4)nn3)c2)n1 [Compound 173]
> 10	> 10	CNc1cc(C)nc(Nc2ccc(OC)c(-c3cn4c(n3)CN(C)CC4)c2)n1 [Compound 6]
0.1 to 1	< 0.1	CNc1cc(C)nc(Nc2ccc(OC)c(-n3cc(CN(C)C)c(C)n3)c2)n1 [Compound 160]
> 10	0.1 to 1	CNc1ccnc(Nc2ccc(OC)c(-n3cc(CNC4CCC4)nn3)c2)n1 [Compound 191]
